Measurements taken from patent publication US20100298602A1, “SYSTEMS AND METHODS FOR MICROFLUIDIC CRYSTALLIZATION” (Massachusetts Institute of Technology, priority 2009, published 2010).
Each block holds one molecule with its values, some of them ahead of it.

Assay: Seeded continuous crystallization in a microfluidic device; growth rates from optical images
Settings: room temperature, water/ethanol antisolvent
[1] = Supersaturation S = ln(C/Cs,γ) = 0.319

G<00-1>,exp growth rate [1]: 4.4 ± 1.8 μm/min | G{100, 010},exp growth rate [1]: 3.2 ± 1.6 μm/min | G{100, 010},exp growth rate (Supersaturation S = ln(C/Cs,γ) = 0.389): 5.5 ± 1.6 μm/min
SMILES: NCC(=O)O [γ-Glycine, glycine]

G<010> experimental growth rate (S = ln(C/Cs,α) = 0.30): 194 ± 55 μm/min | G<010> experimental growth rate (S = ln(C/Cs,α) = 0.39): 235 ± 43 μm/min | G<010> experimental growth rate (S = ln(C/Cs,α) = 0.47): 250 ± 52 μm/min
SMILES: NCC(=O)O [β-Glycine, glycine]

G<010>,exp growth rate of <010> crystal plane (S = ln(C/Cs,α) = 0.33): 0.40 ± 0.25 μm/min | G<011>, exp growth rate of <011> crystal plane (S = ln(C/Cs,α) = 0.33): 2.22 ± 0.91 μm/min | G<010>,exp growth rate of <010> crystal plane (S = ln(C/Cs,α) = 0.56): 0.74 ± 0.16 μm/min | G<011>, exp growth rate of <011> crystal plane (S = ln(C/Cs,α) = 0.56): 3.34 ± 0.43 μm/min | G<010>,exp growth rate of <010> crystal plane (S = ln(C/Cs,α) = 0.64): 0.66 ± 0.23 μm/min | G<011>, exp growth rate of <011> crystal plane (S = ln(C/Cs,α) = 0.64): 4.78 ± 1.35 μm/min
SMILES: NCC(=O)O [α-Glycine, glycine]
